From patent publication US20240360151A1 (SANOFI, priority 2023, published 2024)

How the values were obtained:
NLRP3 inflammasome = target: T1, NLRP3 inflammasome (Homo sapiens, UniProt Q96P20); test: IL-1β secretion assay (NLRP3 IC50) in LPS-primed, nigericin-activated THP-1 cells, HTRF; assay type: cell-based; settings: monocytic THP-1 cells; LPS 10 ng/mL 3 h priming, then compound + nigericin 10 μM 2 h; relative IC50, 10 concentrations, geometric mean
T1 construct: endogenous in cells; host or cells: THP-1 monocytic cells
T1 sequence (Q96P20 whole entry): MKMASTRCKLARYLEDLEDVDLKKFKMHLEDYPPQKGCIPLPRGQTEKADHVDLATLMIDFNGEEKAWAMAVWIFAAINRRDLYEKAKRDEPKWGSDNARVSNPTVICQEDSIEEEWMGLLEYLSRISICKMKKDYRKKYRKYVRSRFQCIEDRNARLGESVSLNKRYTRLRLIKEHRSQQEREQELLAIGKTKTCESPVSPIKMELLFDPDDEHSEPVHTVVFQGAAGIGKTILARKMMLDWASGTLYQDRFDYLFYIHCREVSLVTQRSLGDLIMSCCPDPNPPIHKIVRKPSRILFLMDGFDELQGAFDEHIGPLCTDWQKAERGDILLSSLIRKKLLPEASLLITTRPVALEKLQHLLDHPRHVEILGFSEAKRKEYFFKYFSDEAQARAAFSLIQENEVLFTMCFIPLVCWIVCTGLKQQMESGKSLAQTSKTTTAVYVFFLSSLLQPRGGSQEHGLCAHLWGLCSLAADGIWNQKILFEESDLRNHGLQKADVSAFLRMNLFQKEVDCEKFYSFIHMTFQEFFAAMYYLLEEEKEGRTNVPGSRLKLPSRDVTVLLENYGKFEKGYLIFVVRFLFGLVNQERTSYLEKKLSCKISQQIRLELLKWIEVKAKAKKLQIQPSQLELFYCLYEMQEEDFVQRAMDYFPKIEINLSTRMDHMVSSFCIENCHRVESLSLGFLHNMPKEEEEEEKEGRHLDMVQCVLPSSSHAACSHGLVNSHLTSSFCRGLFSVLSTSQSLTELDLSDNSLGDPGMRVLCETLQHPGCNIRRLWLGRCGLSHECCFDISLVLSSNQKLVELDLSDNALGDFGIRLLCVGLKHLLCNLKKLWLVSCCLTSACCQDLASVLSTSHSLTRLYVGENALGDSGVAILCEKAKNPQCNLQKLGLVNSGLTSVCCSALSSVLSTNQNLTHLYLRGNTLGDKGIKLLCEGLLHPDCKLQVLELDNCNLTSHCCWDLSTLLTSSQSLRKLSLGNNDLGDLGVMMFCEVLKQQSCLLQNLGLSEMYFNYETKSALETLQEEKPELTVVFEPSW
Summary of the method: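 THP-1 cells primed with LPS 10 ng/mL for 3 h at 37° C., then compound (10-point 1:3 dilution, 0.1% DMSO) added with 10 μM nigericin for 2 h. Supernatant IL-1β measured by HTRF; relative IC50 from a 4-parameter logistic fit, reported as geometric mean.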

[1] = tested on: NF-kB pathway (TNF-α secretion by THP-1 cells); test: TNF-α secretion assay in LPS-stimulated THP-1 cells, Lumit immunoassay; assay type: cell-based, human; settings: Homo sapiens, THP-1, 3 h, monocytic THP-1 cells, LPS 10 ng/mL, relative IC50, 10 concentrations, geometric mean
Summary of the method: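 THP-1 monocytes in RPMI with 5% FBS were treated with compound, then stimulated with 10 ng/mL LPS for 3 h. Secreted TNF-α was measured in-plate by Lumit immunoassay. Relative IC50 came from 10-concentration curves fitted with a 4-parameter logistic model, reported as geometric mean.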

IC50 (NLRP3 inflammasome) [nM]	IC50 [1] [nM]	Compound
9	> 10000	Cc1cc(Cl)cc(O)c1-c1ccc(N2CCO[C@H]3CCNC[C@H]32)nn1 [Example 308, 2-[6-[(4aR,8aS)-2,3,4a,5,6,7,8,8a-octahydropyrido[4,3-b][1,4]oxazin-4-yl]pyridazin-3-yl]-5-chloro-3-methyl-phenol]
1	> 10000	CN1CC[C@H]2OCCN(c3cc(C(F)F)c(-c4ccc(Cl)cc4O)nn3)[C@H]2C1 [Example 350, 2-[6-[(4aS,8aR)-6-methyl-3,4a,5,7,8,8a-hexahydro-2H-pyrido[4,3-b][1,4]oxazin-4-yl]-4-(difluoromethyl)pyridazin-3-yl]-5-chloro-phenol]
131	> 10000	Cc1ccc(C)c(-c2ccc(N3CCO[C@H](CO)C3)nn2)c1O [Example 141, 2-[6-[(2S)-2-(hydroxymethyl)morpholin-4-yl]pyridazin-3-yl]-3,6-dimethylphenol]
311	> 10000	Cc1cc(C)c(-c2ccc(N3CCO[C@@H](CN)C3)nn2)c(O)c1 [Example 87, 2-[6-[(2S)-2-(aminomethyl)morpholin-4-yl]pyridazin-3-yl]-3,5-dimethyl-phenol; 2,2,2-trifluoroacetic acid]
414	> 10000	Cc1cc(Cl)cc(O)c1-c1nnc(N2CCO[C@H](CO)C2)cc1CO [Example 188, 5-chloro-2-[4-(hydroxymethyl)-6-[(2S)-2-(hydroxymethyl)morpholin-4-yl]pyridazin-3-yl]-3-methyl-phenol]
33	> 10000	Cc1cc(N2CCO[C@H](CO)C2)nnc1-c1ccc(Cl)cc1O [Example 85, 5-chloro-2-[6-[(2S)-2-(hydroxymethyl)morpholin-4-yl]-4-methyl-pyridazin-3-yl]phenol]
561	> 10000	COc1cc(C)c(-c2nnc(N3CCO[C@H](CO)C3)cc2C)c(O)c1 [Example 119, 2-[6-[(2S)-2-(hydroxymethyl)morpholin-4-yl]-4-methyl-pyridazin-3-yl]-5-methoxy-3-methyl-phenol]
2	> 10000	Cc1cc(C)c(-c2ccc(N3CC[C@@H]4CCN(C)C[C@@H]43)nn2)c(O)c1 (racemic) [Example 342, 3,5-dimethyl-2-[6-[rac-(3aS,7aR)-6-methyl-3,3a,4,5,7,7a-hexahydro-2H-pyrrolo[2,3-c]pyridin-1-yl]pyridazin-3-yl]phenol]
43	> 10000	Cc1cc(C(F)(F)F)cc(O)c1-c1cc(C#N)c(N2CCO[C@H](CO)C2)nn1 [Example 159, 3-[(2S)-2-(hydroxymethyl)morpholin-4-yl]-6-[2-hydroxy-6-methyl-4-(trifluoromethyl)phenyl]pyridazine-4-carbonitrile]
2	> 10000	CCN1CC[C@H]2OCCN(c3cc(C)c(-c4ccc(C(F)(F)F)cc4O)nn3)[C@H]2C1 [Example 436, 2-[6-[(4aS,8aR)-6-ethyl-3,4a,5,7,8,8a-hexahydro-2H-pyrido[4,3-b][1,4]oxazin-4-yl]-4-methyl-pyridazin-3-yl]-5-(trifluoromethyl)phenol]
4	> 10000	CCc1cc(C(F)(F)F)cc(O)c1-c1ccc(N2CCO[C@@H]3CCN(C(C)=O)C[C@@H]32)nn1 [Example 380, 1-[(4aS,8aR)-4-[6-[2-ethyl-6-hydroxy-4-(trifluoromethyl)phenyl]pyridazin-3-yl]-3,4a,5,7,8,8a-hexahydro-2H-pyrido[4,3-b][1,4]oxazin-6-yl]ethanone]
493	> 10000	Cc1cc(C(F)(F)F)cc(O)c1-c1ccc(N2CC[C@H]3CN(C)C[C@H]32)nn1 (single isomer, unassigned) [Example 270]
208	> 10000	Cc1ccc(-c2nnc(N3CCO[C@H](CO)C3)c(C)c2C)c(O)c1 [Example 80, 2-[6-[(2S)-2-(hydroxymethyl)morpholin-4-yl]-4,5-dimethyl-pyridazin-3-yl]-5-methyl-phenol]
2340	6580	Cc1cc(C)c(-c2ccc(N3CCCc4ccccc43)nn2)c(O)c1 [Example 272, 2-[6-(3,4-dihydro-2H-quinolin-1-yl)pyridazin-3-yl]-3,5-dimethyl-phenol]
28	> 10000	Cc1cc(C(F)(F)F)cc(O)c1-c1ccc(N2C[C@@H](CO)O[C@H](C)C2)nn1 [Example 296, 2-[6-[(2S,6R)-2-(hydroxymethyl)-6-methyl-morpholin-4-yl]pyridazin-3-yl]-3-methyl-5-(trifluoromethyl)phenol]
2	> 10000	CCc1cccc(O)c1-c1ccc(N2CCO[C@@H]3CCN(CC)C[C@@H]32)nn1 [Example 408, 2-[6-[(4aS,8aR)-6-ethyl-3,4a,5,7,8,8a-hexahydro-2H-pyrido[4,3-b][1,4]oxazin-4-yl]pyridazin-3-yl]-3-ethyl-phenol]

IC50 (NLRP3 inflammasome) [nM]	IC50 [1] [nM]	Compound
81	> 10000	CC(=O)NC[C@@H]1CCCN(c2ccc(-c3c(C)cc(C(F)(F)F)cc3O)nn2)C1 [Example 164, N-[[(3S)-1-[6-[2-hydroxy-6-methyl-4-(trifluoromethyl)phenyl]pyridazin-3-yl]-3-piperidyl]methyl]acetamide]
431	> 10000	Cc1cc(C(F)(F)F)cc(O)c1-c1ccc(N2CC(CO)C2)nn1 [Example 30, 2-[6-[3-(hydroxymethyl)azetidin-1-yl]pyridazin-3-yl]-3-methyl-5-(trifluoromethyl)phenol]
23	> 10000	Cc1cc(C(F)(F)F)cc(O)c1-c1ccc(N2C[C@H](CO)O[C@@H](CO)C2)nn1 [Example 200, 2-[6-[(2R,6R)-2,6-bis(hydroxymethyl)morpholin-4-yl]pyridazin-3-yl]-3-methyl-5-(trifluoromethyl)phenol]
263	> 10000	CN1CC[C@@H]2OCCN(c3cc(C(F)F)c(-c4ccc(C(F)(F)F)cc4O)nn3)[C@@H]2C1 [Example 268, 2-[6-[(4aR,8aS)-6-methyl-3,4a,5,7,8,8a-hexahydro-2H-pyrido[4,3-b][1,4]oxazin-4-yl]-4-(difluoromethyl)pyridazin-3-yl]-5-(trifluoromethyl)phenol]
127	> 10000	CC(=O)NC[C@H]1CN(c2ccc(-c3c(C)cc(C(F)(F)F)cc3O)nn2)CCO1 [Example 275, N-[[(2S)-4-[6-[2-hydroxy-6-methyl-4-(trifluoromethyl)phenyl]pyridazin-3-yl]morpholin-2-yl]methyl]acetamide]
20	> 10000	Cc1cccc(O)c1-c1ccc(N2CCO[C@@H]3CCN(C)C[C@@H]32)nn1 [Example 354, 2-[6-[(4aS,8aR)-6-methyl-3,4a,5,7,8,8a-hexahydro-2H-pyrido[4,3-b][1,4]oxazin-4-yl]pyridazin-3-yl]-3-methyl-phenol]
3	> 10000	Cc1cc(C(F)(F)F)cc(O)c1-c1ccc(N2CC[C@@H]3CCNC[C@@H]32)nn1 (single isomer, unassigned) [Example 407]
47	4290	Oc1cc(Cl)cc(Cl)c1-c1ccc(N2CCO[C@H](CF)C2)nn1 (single isomer, unassigned) [Example 238]
2	> 10000	CN1CC[C@H]2CCN(c3ccc(-c4c(O)cccc4C(F)(F)F)nn3)[C@H]2C1 (racemic) [Example 389, 2-[6-[rac-(3aS,7aR)-6-methyl-3,3a,4,5,7,7a-hexahydro-2H-pyrrolo[2,3-c]pyridin-1-yl]pyridazin-3-yl]-3-(trifluoromethyl)phenol]
56	> 10000	CCc1cc(N2CCO[C@H](CO)C2)nnc1-c1ccc(Cl)cc1O [Example 73, 5-chloro-2-[4-ethyl-6-[(2S)-2-(hydroxymethyl)morpholin-4-yl]pyridazin-3-yl]phenol]
1	> 10000	Cc1cc(C(F)(F)F)cc(O)c1-c1ccc(N2CC[C@@H]3CCN(C)C[C@@H]32)nn1 (racemic) [Example 371, 2-[6-[rac-(3aS,7aR)-6-methyl-3,3a,4,5,7,7a-hexahydro-2H-pyrrolo[2,3-c]pyridin-1-yl]pyridazin-3-yl]-3-methyl-5-(trifluoromethyl)phenol]
467	> 10000	Cc1cc(C)c(-c2ccc(N3CC[C@@H](O)C3)nn2)c(O)c1 [Example 70, (3R)-1-[6-(2-hydroxy-4,6-dimethyl-phenyl)pyridazin-3-yl]pyrrolidin-3-ol]
7	> 10000	Cc1cc(Cl)cc(O)c1-c1cc(C(F)F)c(N2CCO[C@H](CO)C2)nn1 [Example 171, 5-chloro-2-[5-(difluoromethyl)-6-[(2S)-2-(hydroxymethyl)morpholin-4-yl]pyridazin-3-yl]-3-methyl-phenol]
71	> 10000	Cc1cc(C(F)F)cc(O)c1-c1ccc(N2CCO[C@H](CO)C2)nn1 [Example 134, 5-(difluoromethyl)-2-[6-[(2S)-2-(hydroxymethyl)morpholin-4-yl]pyridazin-3-yl]-3-methyl-phenol]
64	> 10000	CCc1cc(C)c(-c2ccc(N3CCO[C@H](CO)C3)nn2)c(O)c1 [Example 245, 5-ethyl-2-[6-[(2S)-2-(hydroxymethyl)morpholin-4-yl]pyridazin-3-yl]-3-methylphenol]
